The values below are quoted from earlier work in patent US7534787B2, “Method of treating diseases and conditions associated with an altered level of amyloid beta peptides and new enolcarboxamide compounds” (Boehringer Ingelheim International GmbH, priority 2004, dated 2009).

For the data set, the system named is Aβ42. The settings on record: according to table 3 of WO 01/78721.

Turning to `Cc1cc(NC(=O)C2=C(O)c3ccccc3S(=O)(=O)N2C)no1` [isoxicam], the Aβ42 lowering activity result was “do not lower or even increase the Aβ42 level”.
In the case of `CN1C(C(=O)Nc2ccccn2)=C(O)c2ccccc2S1(=O)=O` [piroxicam], the Aβ42 lowering activity entry is reported as “do not lower or even increase the Aβ42 level”.
